Data as given in patent US20080194507A1, “Defibrotide An/Or Oligodeoxyribonucleotides For Treating Angiogenesis-Dependent Tumors” (priority 2005, published 2008).

Tests used:
[1] = system: human gastric carcinoma; test: Dorsal skin chamber assay, human gastric carcinoma mouse model (Xenograft system); type: in vivo; conditions: first data; treated vs control tumors
Text: We are currently performing a dorsal skin chamber assay (14) that investigates the effect of defibrotide in a highly vascularized human gastric carcinoma mouse model (Xenograft system). […] This set of experiments will be reproduced in due time.

[2] = system: transdifferentiating ELC (TuDC-ELC); test: Matrigel tube formation assay of TuDC-ELC; type: cell-based, human; conditions: for tube formation of TuDC-ELC in Matrigel: 10 μg/mL, 7 days, clinical and subclinical concentrations
Text: We have recently developed a model for an alternative pathway of tumor angiogenesis. […] These endothelial-like cells (ELC) can transdifferentiate from tumor-associated dendritic cells under specific culture conditions (11). Briefly, monocytes are elutriated from leukapheresis products of healthy human blood donors and cultured in the presence of granulocyte-macrophage-colony stimulating factor (GM-CSF) and interleukin 4 (IL-4) to stimulate the differentiation of dendritic cells (DC). In addition, cells are treated with a cocktail specifically released by tumor cells (M-CSF, IL.6 and lactate, Gottfried et al., manucript submitted) to promote the outgrowth of tumor-associated dendritic cells (TuDC).
In addition, they are able to form tube-like structures in Matrigel™, an in vitro assay of angiogenesis.
(§1) The Matrigel™ assay is one of the most popular and widely used in vitro angiogenesis assays (22). Matrigel™ is a semisolid synthetic mixture of extracellular matrix proteins which simulate the matrix that physiologically exist beneath the endothelial cell wall of a blood vessel. When the cells of question are seeded onto this matrix in microscopic chamber slides, they are activated to form tubular structures in 3-7 days, but only in the case that they have an endothelial phenotype. Therefore, this assay is suitable to show the potential capacity of cells to give rise to a tumor vasculature.
(§2) TuDC-ELC and mature, differentiated endothelial cells, [human umbilical vene (HUVEC) or microvascular endothelial cells (HMEC) as “stable” controls] were incubated in the presence or absence of oligotide or Defibrotide (10 μg/mL each) for 7 days.
By the help of a complimentary software from the NIH (Image J, http://rsb.info.nih.gov/ij/), we are able to quantify these effects, the total length of tubes and the area of the photograph are assessed, the microvascular density (MVD) is then given in total length/area [pix-1].

[3] = system: activated p70S6 kinase (p-p70S6); test: Western Blot analyses of activated p70S6 kinase; type: cell-based; conditions: preliminary evidence
[4] = system: human umbilical vene (HUVEC) endothelial cells; test: Matrigel tube formation assay of HUVEC; type: cell-based; conditions: single addition, 10 μg/mL, 7 days
Procedure: as §1, §2

[5] = system: microvascular endothelial cells (HMEC); test: Matrigel tube formation assay of HMEC; type: cell-based, human; conditions: single addition, 10 μg/mL, 7 days
Procedure: as §1, §2

[6] = system: human microvascular endothelial cells; test: Angiogenesis assay of microvascular endothelial cells vascularizing through a layer of dermal fibroblasts; type: cell-based
Procedure: The aortic ring assay investigates macrovascular endothelial cells. But often, the tumor vasculature consists of microvascular endothelial cells. Therefore, a third in vitro angiogenesis assay was performed on the basis of microvascular endothelial cells vascularizing through a layer of dermal fibroblasts after 9-11 days of culture. These vessel-like structures can subsequently be visualized by staining for CD31 and vWF.

Substance	microvascular density (MVD) of tumors [1]	tube formation of TuDC-ELC in Matrigel [2]	microvascular density (MVD), total length/area ([2]; TuDC-ELC, p=0.02, TTEST, FIG. 1B)	effect on activated p70S6 kinase (p-p70S6) [3]	tube formation potential [4]	tube formation potential [5]	angiogenesis of human microvascular endothelial cells ([6]; daily application, 9-11 days of culture, CD31 and vWF staining)	most effective concentration ([6]; human microvascular endothelial cells, FIGS. 3A and B)
defibrotide	lower than that of control tumors	inhibit tube formation	downregulates	downregulating effect	not affected	not affected	block angiogenesis	around 10 μg/mL
oligotide	–	inhibit tube formation	–	–	–	–	–	–
